# Source: a melting point compilation (Tetko et al.; mined from patent text by program, amines drawn as free bases though some values may be those of a salt)
row,Compound,melting point
1,CN(Cc1cccc2c1CN(C1CCC(=O)NC1=O)C2=O)C(=O)Nc1cc(Cl)cc(Cl)c1 (stereo not given),285 to 287 °C
2,COc1cc(C=O)ccc1OCCCCCCO,55 to 56 °C
3,CCOC(=O)C1(Br)Oc2ccc(OC(C)=O)cc2OC1Br (stereo not given),58 °C
4,COc1cc2c(CC(=O)O)c(C)n(C(=O)c3ccccc3)c2cc1F,118 to 120 °C
5,CCN(CC)C(=O)COc1ccc(S(=O)(=O)c2ccc(O)cc2)cc1,223 to 226 °C
6,Cc1nc(Nc2nc3cccc(C)c3[nH]2)nc(O)c1CC(=O)O,> 300 °C
7,C=C(F)CCc1cccc(C2(c3ccc(OC(F)F)cc3)N=C(N)N(C)C2=O)c1 (stereo not given),58 to 60 °C
8,O=C1c2ccccc2OCN1CCCl,45 °C
9,COC(=O)c1c(C)nc2c(c1N)c1ccccc1n2Cc1ccc(OC)cc1,142 to 145 °C
10,COC(=O)c1ccc(Cl)cc1NC(=O)CSc1ccc(C)c(C)c1,90 to 91 °C
11,CCC(C)(C)N1C(=O)C2(COc3cc4c(cc32)CCO4)c2ccccc21 (stereo not given),128 to 129 °C
12,COc1cc2c(Nc3ccc(Cl)cc3F)ncnc2cc1OCCSC,174 to 176 °C
13,O=CN1CCC(c2nn(-c3ccc(C(F)(F)F)cc3)c3cc(F)ccc23)CC1,142 to 144 °C
14,N#CC=Cc1ccc(Cl)s1,41 to 43 °C
15,Nc1nc2ccccc2c2c1nc(CO)n2CC1(O)CCOCC1,> 250 °C
16,O=C(CC1CCCCC1=O)c1ccc(Cl)cc1 (stereo not given),56 to 58 °C
17,O=C(Nc1cc(Cl)cc(Cl)c1O)Nc1cccc(C(F)(F)F)c1Cl,161 to 163 °C
18,CCN(CC)Cc1cc(Nc2ccnc3cc(Cl)ccc23)c2c(c1O)CCCC2,215 to 217 °C
19,O=C(Nc1ccc(OS(=O)(=O)c2cccc(C(F)(F)F)c2)cc1[N+](=O)[O-])NS(=O)(=O)Cl,152 °C
20,CCOc1nn(Cc2ccc(Cl)cc2Cl)cc1CCCOc1cc(CCC(=O)O)n(-c2ccccc2)n1,132 to 133 °C

row,Compound,melting point
1,CC(C)(C)c1ccc(C(=O)Nc2cn3cc(-n4ccnc4)ccc3n2)cn1,242 to 245 °C
2,O=C1CSC(=S)N1N=c1sc2ccccc2s1,295 to 300 °C
3,CC1=NC(NC(=O)Nc2cccc(C)c2)C(=O)N(CC(=O)c2ccccc2C)c2c(C)cccc21 (stereo not given),128 to 136 °C
4,CC(C#N)(CNC(=O)c1n[nH]cc1NC(=O)c1ccccn1)Cc1ccccc1 (stereo not given),196 to 197 °C
5,CC1(C)Cc2nsc(=Nc3c(F)cc(Cl)c4nc(Cl)sc34)n2C1,134 to 136 °C
6,COc1ccc2c(c1)C(=O)C(=CCC(=O)OC(C)(C)C)CC2,76 °C
7,O=C1CC(=O)CC(c2cc([N+](=O)[O-])ccc2F)C1,171 to 173 °C
8,COc1ccc(C#N)cc1OC1COCC1OC (stereo not given),98 to 100 °C
9,CCOC(=O)c1c(N2CCN(C(=O)c3cccs3)CC2)c2c(C)csc2n(Cc2ccccc2)c1=O,195 °C
10,COc1cc2c(cc1OC)[C@H]([C@H](O)c1ccccc1)OC2=O,113 to 115 °C
11,COC(=O)C=Cc1c(O)cccc1C#CCCCCOC1CCCCO1 (racemic),66 to 67.5 °C
12,COc1ccc(C2=Nc3cccnc3Nc3ccccc32)cc1,198 to 200 °C
13,CN1CCc2ccc(OCCCCN3CCN(c4cccc(Cl)c4Cl)CC3)cc2NC1=O,139 to 140 °C
14,O=C(CBr)c1ccc(OCC(=O)N2CCOCC2)cc1,105 to 107 °C
15,CCOC(=O)Cc1ccc(Cc2nc3c(F)c(F)cc(F)c3s2)cc1,75 to 77 °C
16,CC1(O)CSC(=S)N1c1ccc(Cl)cn1 (stereo not given),95 °C
17,O=C(NC(CO)c1ccc(-c2ccc(SC(F)F)cc2)cc1)c1c(F)cccc1F (stereo not given),156 to 157 °C
18,CCOC(=O)Nc1ncc(-c2nc3ccccc3c(=O)n2-c2ccccc2OC)s1,263 to 264 °C
19,CC(C)=Nc1c(-c2ccccc2)[nH]c(C)c1C(N)=O,221 to 223 °C
20,CC(C)(C)OC(=O)N[C@@H](CC(=O)NCCC(=O)OCc1ccccc1)C(=O)OCc1ccccc1,77 to 78 °C
